Measured values taken from patent publication US5464617A, “β-lactam compounds” (Hoffmann-La Roche Inc., priority 1994, dated 1995).
Converted amounts (≈) assume the structure as drawn. Counter-ions that a name gives are not always drawn.

Experiments:
E. coli 1346 = test: Antibacterial activity of the products per se, serial dilution method in liquid medium (Test E); type: cell-based; settings: test E, product per se
From the text: The antibacterial activity of the products per se is illustrated on the basis of Table 3 hereinafter, the minimum inhibitory concentration […] in vitro against E. coli 1346 being determined using the serial dilution method in liquid medium: […]

[1] = tested on: Citrobacter freundii 1982; test: MIC in vitro of a 1:4 combination of ceftriaxone with a compound of formula I (Test D); type: cell-based; settings: test D
Description: The minimum inhibitory concentration in vitro ([…]) of a 1:4 combination of ceftriaxone with a compound of formula I against Citrobacter freundii 1982 was measured and compiled in Table 2 hereinafter.

[2] = Table 4, 1:4 combination of ceftriaxone with the compound

SMILES	MIC E. coli 1346 (E) (E. coli 1346; Table 4)	MIC C. freundii 1982 (D) [1, 2]	MIC E. coli 1346 (E) (E. coli 1346; Table 5, particularly preferred products)	MIC C. freundii 1982 (D) ([1]; Table 5, particularly preferred products, 1:4 combination with ceftriaxone)
C=CC1=C(C(=O)O)N2C(=O)[C@@H]3[C@H]2[C@H](C1)CN3C(=O)Nc1ccc(O)cc1 [46(a), (1aS,3aR,6bR)-2-(4-Hydroxy-phenylcarbamoyl)-1-oxo-5-vinyl-1a,2,3,3a,4,6b-hexahydro-1H-2,6a-diazacyclobut[cd]indene-6-carboxylic acid sodium salt]	64 µg/mL	1 µg/mL		
C=CC1=C(C(=O)O)N2C(=O)[C@@H]3[C@H]2[C@H](C1)CN3C(=O)Nc1ccc(C(N)=O)cc1 [46(b), (1aS,3aR,6bR)-2-(4-Carbamoyl-phenylcarbamoyl)-1-oxo-5-vinyl-1a,2,3,3a,4,6b-hexahydro-1H-2,6a-diazacyclobut[cd]indene-6-carboxylic acid sodium salt]	> 32 µg/mL	0.5 µg/mL		
N#C/C=C\C1=C(C(=O)O)N2C(=O)[C@H]3NC[C@@H](C1)[C@H]32 [48(a), (Z)-(1aS,3aR,6bR)-5-(2-Cyanovinyl)-1-oxo-1a,2,3,3a,4,6b-hexahydro-1H-2,6a-diazacyclobut[cd]indene-6-carboxylic acid trifluoroacetate]	16 µg/mL	4 µg/mL		
N#C/C=C/C1=C(C(=O)O)N2C(=O)[C@H]3NC[C@@H](C1)[C@H]32 [48(b), (E)-(1aS,3aR,6bR)-5-(2-Cyanovinyl)-1-oxo-1a,2,3,3a,4,6b-hexahydro-1H-2,6a-diazacyclobut[cd]indene-6-carboxylic acid trifluoroacetate]	4 µg/mL	2 µg/mL		
N#C/C=C\C1=C(C(=O)O)N2C(=O)[C@@H]3[C@H]2[C@H](C1)CN3C(=O)Nc1ccc(O)cc1 [49(a), (Z) -(1aS,3aR,6bR)-5-(2-Cyanovinyl)-2-(4-hydroxyphenylcarbamoyl)-1-oxo-1a,2,3,3a,4,6b-hexahydro-1H-2,6a-diazacyclobut[cd]indene-6-carboxylic acid sodium salt]	> 32 µg/mL	2 µg/mL		
N#C/C=C/C1=C(C(=O)O)N2C(=O)[C@@H]3[C@H]2[C@H](C1)CN3C(=O)Nc1ccc(O)cc1 [49(b), (E)-(1aS,3aR,6bR)-5-(2-Cyanovinyl)-2-(4-hydroxyphenylcarbamoyl)-1-oxo-1a,2,3,3a,4,6b-hexahydro-1H-2,6a-diazacyclobut[cd]indene-6-carboxylic acid sodium salt]	4 µg/mL	1 µg/mL		
O=C([O-])Cc1ccc[n+](CC2=C(C(=O)O)N3C(=O)[C@@H]4[C@H]3[C@H](C2)CN4C(=O)Nc2ccc(O)cc2)c1 [57(b), (1aS,3aR,6bR)-[1-[6-Carboxy-2-(4-hydroxy-phenylcarbamoyl)-1-oxo-1a,2,3,3a,4,6b-hexahydro-1H-2,6a-diazacyclobut[cd]inden-5-ylmethyl]-pyridin-3-ylio]-acetate]	> 32 µg/mL	0.25 µg/mL		
NC(=O)OCC1=C(C(=O)O)N2C(=O)[C@@H]3[C@H]2[C@H](C1)CN3C(=O)Cc1cccs1 [58(b), (1aS, 3aR,6bR)-5-Carbamoyloxymethyl-1-oxo-2-(thiophen-2-yl-acetyl)-1a,2,3,3a,4,6b-hexahydro-1H-2,6a-diazacyclobut[cd]indene-6-carboxylic acid sodium salt]	16 µg/mL	0.5 µg/mL		
CS(=O)(=O)N1C[C@H]2CC(COC(N)=O)=C(C(=O)O)N3C(=O)[C@@H]1[C@@H]23 [58(c), (1aS,3aR,6bR)-5-Carbamoyloxymethyl-2-methylsulphonyl-1-oxo-1a,2,3,3a,4,6b-hexahydro-1H-2,6a-diazacyclobut[cd]indene-6-carboxylic acid sodium salt]	0.5 µg/mL	0.5 µg/mL		
NC(=O)OCC1=C(C(=O)O)N2C(=O)[C@@H]3[C@H]2[C@H](C1)CN3C(=O)CSc1ccncc1 [58(g), (1aS,3aR,6bR)-5-Carbamoyloxymethyl-1-oxo-2-pyridin-4-ylsulphanylacetyl-1a,2,3,3a,4,6b-hexahydro-1H-2,6a-diazacyclobut[cd]indene-6-carboxylic acid sodium salt]	8 µg/mL	0.25 µg/mL		
NC(=O)OCC1=C(C(=O)O)N2C(=O)[C@@H]3[C@H]2[C@H](C1)CN3C(=O)CNc1ccccc1 [58(h), (1aS,3aR,6bR)-5-Carbamoyloxymethyl-1-oxo-2-phenylaminoacetyl-1a,2,3,3a,4,6b-hexahydro-1 H-2,6a-diazacyclobut[cd]indene-6-carboxylic acid sodium salt]	32 µg/mL	1 µg/mL		
COC(=O)CN1C[C@H]2CC(COC(N)=O)=C(C(=O)O)N3C(=O)[C@@H]1[C@@H]23 [59(b), (1aS,3aR,6bR)-5-Carbamoyloxymethyl-2-methoxycarbonylmethyl-1-oxo-1a,2,3,3a,4,6b-hexahydro-1H-2,6a-diazacyclobut[cd]indene-6-carboxylic acid sodium salt]	2 µg/mL	0.5 µg/mL		
NC(=O)CN1C[C@H]2CC(COC(N)=O)=C(C(=O)O)N3C(=O)[C@@H]1[C@@H]23 [59(d), (1aS,3aR,6bR)-2-Carbamoylmethyl-5-carbamoyloxymethyl-1-oxo-1a,2,3,3a,4,6b-hexahydro-1H-2,6a-diazacyclobut[cd]indene-6-carboxylic acid sodium salt]	8 µg/mL	1 µg/mL		
Cn1nnnc1SCC1=C(C(=O)O)N2C(=O)[C@@H]3[C@H]2[C@H](C1)CN3CC(=O)Nc1ccc(O)cc1 [61(b), (1aS,3aR,6bR)-2-(4-Hydroxy-phenylcarbamoylmethyl)-5-(1-methyl-1H-tetrazol-5-ylsulphanylmethyl)-1-oxo-1a,2,3,3a,4,6b-hexahydro-1H-2,6a-diazacyclobut[cd]indene-6-carboxylic acid sodium salt]	16 µg/mL	2 µg/mL		

Second part, the compound after the results:

MIC E. coli 1346 (E) (E. coli 1346; Table 4)	MIC C. freundii 1982 (D) [1, 2]	MIC E. coli 1346 (E) (E. coli 1346; Table 5, particularly preferred products)	MIC C. freundii 1982 (D) ([1]; Table 5, particularly preferred products, 1:4 combination with ceftriaxone)	SMILES
8 µg/mL	4 µg/mL			CC(=O)N1C[C@H]2CC(CSc3cc[n+](CC(=O)[O-])cc3)=C(C(=O)O)N3C(=O)[C@@H]1[C@@H]23 [52(a), (1aS,3aR,6bR)-[4-(2-Acetyl-6-carboxy-1-oxo-1a,2,3,3a,4,6b-hexahydro-1H-2,6a-diaza-cyclobut[cd]inden-5-yl-methylsulphanyl)-pyridinio]-acetate bromoacetate (1:3.18) sodium salt (1:4.18)]
2 µg/mL (≈ 3.97 µM)	1 µg/mL			O=C([O-])C1=C(CSc2cc[n+](Cc3ccccc3)cc2)C[C@@H]2CN(C(=O)C(F)(F)F)[C@@H]3C(=O)N1[C@H]23 [52(d), (1aS,3aR,6bR)-5-(1-Benzyl-pyridin-4-yliosulphanylmethyl)-1-oxo-2-trifluoroacetyl-1a,2,3,3a,4,6b-hexahydro-1H-2,6a-diazacyclobut[cd]indene-6-carboxylate]
> 32 µg/mL	2 µg/mL			CC(=O)N1C[C@H]2CC(COC(N)=O)=C(C(=O)O)N3C(=O)[C@@H]1[C@@H]23 [58(a), (1aS,3aR,6bR)-2-Acetyl-5-carbamoyloxymethyl-1-oxo-1a,2,3,3a,4,6b-hexahydro-1H-2,6a-diazacyclobut[cd]indene-6-carboxylic acid sodium salt]
		1 µg/mL	0.5 µg/mL	NC(=O)OCC1=C(C(=O)O)N2C(=O)[C@@H]3[C@H]2[C@H](C1)CN3C(=O)C(F)(F)F [58(d), (1aS,3aR,6bR)-5-Carbamoyloxymethyl-1-oxo-2-trifluoroacetyl-1a,2,3,3a,4,6b-hexahydro-1H-2,6a-diazacyclobut[cd]indene-6-carboxylic acid sodium salt]
8 µg/mL	0.12 µg/mL			NC(=O)OCC1=C(C(=O)O)N2C(=O)[C@@H]3[C@H]2[C@H](C1)CN3C(=O)CSc1nnc(N)s1 [58(f), (1aS,3aR,6bR)-2-(5-Amino-1,3,4-thiadiazol-2-ylsulphanylacetyl)-5-carbamoyloxymethyl-1-oxo-1a,2,3,3a,4,6b-hexahydro-1H-2,6a-diazacyclobut[cd]indene-6-carboxylic acid sodium salt]
8 µg/mL	2 µg/mL			CCN1C[C@H]2CC(COC(N)=O)=C(C(=O)O)N3C(=O)[C@@H]1[C@@H]23 [59(c), (1aS,3aR,6bR)-5-Carbamoyloxylmethyl-2-ethyl-1-oxo-1a,2,3,3a,4,6b-hexahydro-1H-2,6a-diazacyclobut[cd]indene-6-carboxylic acid sodium salt]
0.5 µg/mL	1 µg/mL			CC(=O)N1C[C@H]2CC(CSc3nnc(C)s3)=C(C(=O)O)N3C(=O)[C@@H]1[C@@H]23 [65(a), (1aS,3aR,6bR)-2-Acetyl-5-(5-methyl-1,3,4-thiadiazol-2-ylsulphanylmethyl)-1-oxo-1a,2,3,3a,4,6b-hexahydro-1H-2,6a-diazacyclobut[cd]indene-6-carboxylic acid sodium salt]
2 µg/mL	1 µg/mL			Cc1nnc(SCC2=C(C(=O)O)N3C(=O)[C@@H]4[C@H]3[C@H](C2)CN4C(=O)C(F)(F)F)s1 [65(b), (1aS,3aR,6bR)-5-(S-Methyl-1,3,4-thiadiazol-2-ylsulphanylmethyl)-1-oxo-2-trifluoroacetyl-1a,2,3,3a,4,6b-hexahydro-1H-2,6a-diazacyclobut[cd]indene-6-carboxylic acid sodium salt]
2 µg/mL	1 µg/mL			Cc1nnc(SCC2=C(C(=O)O)N3C(=O)[C@@H]4[C@H]3[C@H](C2)CN4C(=O)CSc2ccncc2)s1 [65(c), (1aS,3aR,6 bR)-5-(S-Methyl-1,3,4-thiadiazol-2-ylsulphanylmethyl)-1-oxo-2-(pyridin-4-ylsulphanylacetyl)-1a,2,3,3a,4,6b-hexahydro-1H-2,6a-diazacyclobut[cd]indene-6-carboxylic acid sodium salt]
